According to PMC6154661, “In Vitro Glucuronidation and Sulfation of ε-Viniferin, a Resveratrol Dimer, in Humans and Rats” (Molecules : A Journal of Synthetic Chemistry and Natural …, 2017):
“And” between values parts separate entries of the source, which are not always exact repeats. Equal values may be shown once. Read-outs that look alike come from different tables or passages of the source.

Legend:
[1] = Glucuronidation of ε-viniferin by rat liver S9 fractions (UDPGA); type: in vitro ADME; conditions: for Vmax: formation of the glucuronide from ε-viniferin, rat liver S9, mean ± SEM, n=3
Procedure: (§1) After incubation of ε-viniferin (50 µM) for 40 min at 37 °C with either human (Figure 2a, lower panel) or rat (Figure 2b, lower panel) liver S9 fractions (2 mg/mL) in the presence of different phase II cofactor(s), i.e., 3′-phosphoadenosine-5′-phosphosulfate (PAPS) and UDPGA, eight metabolites were found using UPLC-DAD-MS. These metabolites were further identified by comparison with the UPLC retention times and mass spectra of the authentic chemical standards that were obtained by chemical hemi-synthesis (Figure 1a). These eight compounds were the four glucuronoconjugates (MG1, MG2, MG3, and MG4) and the four sulfoconjugates (MS1, MS2, MS3, and MS4). These metabolites were absent in the control condition, i.e., in the presence of liver S9 fractions and in the absence of phase II cofactors (data not shown).
(§2) Samples from either chemical hemi-synthesis or metabolic reactions were carried using a 1290 Infinity UPLC (Agilent Technologies, Courtaboeuf, France). The UPLC was coupled to an Esquire 3000 Plus ion trap mass spectrometer using an ESI source (Bruker-Daltonics, Billerica, MA, USA). 2 µL were injected into an Agilent SB-C18 column (1.8 µm, 2.1 × 100 mm). Samples were eluted with solvent A (H2O 0.1% FA) and solvent B (acetonitrile 0.1% FA) by the following gradient program: 0–1.7 min, 10% B; 1.7–3.4 min, 10–20% B; 3.4–5.1 min, 20–30% B; 5.1–7.8 min, 30% B; 7.8–8.5 min, 30–35% B; 8.5–11.9 min, 35–60% B; 11.9–15.3 min, 60–100% B; 15.3–17 min, 100% B; 17–17.3 min, 100–10% B. The flow rate was set to 0.4 mL/min and the UV detector was set at the wavelength 320 nm. Total ion chromatograms were obtained using negative mode with a range of m/z 130–1400. The parameters were: capillary voltage, +4 kV; nebulizer pressure, 40 psi; dry gas, 10 L/min; dry temperature, 365 °C. Data analysis was performed with Bruker Data Analysis 3.2 (Bruker-Daltonics, Billerica, MA, USA). Metabolite concentrations were expressed as an equivalent of the ε-viniferin standard curve.
(§3) The incubation conditions were optimized by preliminary experiments to ensure the formation rates of metabolites were linear over the incubation time and at the concentration of protein added. Sulfation was investigated by incubating human or rat liver S9 fractions (2 mg/mL) with ε-viniferin at different concentrations (5 to 300 µM) in Tris-HCl buffer (50 mM, pH 7.4), in the presence of PAPS (1 mM), DTT (10 mM), MgCl2 (5 mM) in a final volume of 100 µL. After 40 min at 37 °C, the reaction was stopped with 100 µL of methanol to precipitate the protein. Glucuronidation was investigated by incubating human or rat liver S9 fractions (2 mg/mL) with ε-viniferin at different concentrations (5 to 300 µM) in Tris-HCl buffer (50 mM, pH 7.4), in the presence of UDPGA (1 mM), alamethicin (25 µg/mL), and MgCl2 (5 mM) in a final volume of 100 µL. After 40 min at 37 °C, the reaction was stopped with 100 µL of methanol to precipitate the protein. Samples from sulfation and glucuronidation were then centrifuged for 30 min (14,000× g, 4 °C), and the resultant supernatants were analyzed using UPLC-DAD-MS as described above. The kinetic model that was used to analyze the results was substrate inhibition. Kinetic parameters, i.e., Vmax and Km were obtained using GraphPad Prism software (La Jolla, CA, USA). Results are expressed as mean ± sem of three independent experiments.
(§4) V = (Vmax × [S])/(Km + [S] + [S]^2/Ki), […]

[2] = Formation of glucurono- and sulfoconjugates of ε-viniferin (50 µM, 40 min) with rat liver S9 fractions; type: in vitro ADME; conditions: rat liver S9, ε-viniferin 50 µM
Procedure: as §1, §2, §3

[3] = Glucuronidation of ε-viniferin by human liver S9 fractions (UDPGA); type: in vitro ADME; conditions: for Vmax: formation of the glucuronide from ε-viniferin, human liver S9, mean ± SEM, n=3; for relative abundance among the glucuronides (UPLC-DAD profile): human liver S9 2 mg/mL, ε-viniferin 50 µM, UDPGA, 40 min, 37 °C
Procedure: as §1, §2, §3
(§5) V = (Vmax × [S])/(Km + [S] + [S]^2/Ki),
(§6) Vmax: maximal velocity; Km: substrate affinity constant; [S]: substrate concentration; Ki: substrate inhibition constant.

[4] = Formation of glucurono- and sulfoconjugates of ε-viniferin (50 µM, 40 min) with human liver S9 fractions; type: in vitro ADME; conditions: human liver S9, ε-viniferin 50 µM
Procedure: as §1, §2, §3

[5] = rat, in vivo; cited from earlier work
[6] = Sulfation of ε-viniferin by human liver S9 fractions (PAPS); type: in vitro ADME; conditions: for Vmax: formation of the sulfate from ε-viniferin, human liver S9, mean ± SEM, n=3; for relative abundance among the sulfoconjugates (UPLC-DAD profile): human liver S9 2 mg/mL, ε-viniferin 50 µM, PAPS, 40 min, 37 °C
Procedure: as §1, §2, §3, §4

[7] = Sulfation of ε-viniferin by rat liver S9 fractions (PAPS); type: in vitro ADME; conditions: for Vmax: formation of the sulfate from ε-viniferin, rat liver S9, mean ± SEM, n=3; for relative abundance among the sulfoconjugates (UPLC-DAD profile): rat liver S9 2 mg/mL, ε-viniferin 50 µM, PAPS, 40 min, 37 °C
Procedure: as §1, §2, §3, §5, §6

[8] = design: method as in PMID 27902942; conditions: mice, oral administration; cited from earlier work

Compound	percentage of each metabolite relative to the total amount of ε-viniferin metabolites formed by glucuronidation [2]	percentage of each metabolite relative to the total amount of ε-viniferin metabolites formed by glucuronidation [4]	percentage of each metabolite relative to the total amount of ε-viniferin metabolites formed by sulfation [2]	relative abundance among the sulfoconjugates (UPLC-DAD profile) [7]	percentage of each metabolite relative to the total amount of ε-viniferin metabolites formed by sulfation [4]	relative abundance among the sulfoconjugates (UPLC-DAD profile) [6]	Vmax [1] [pmol/min/mg protein]	Vmax [3] [pmol/min/mg protein]	Vmax [7] [pmol/min/mg protein]	other results
Oc1ccc([C@H]2Oc3ccc(/C=C/c4cc(O)cc(O)c4)cc3[C@@H]2c2cc(O)cc(O)c2)cc1 [δ-viniferin]	–	–	–	–	–	–	–	–	–	oral bioavailability [5]: 2.3%
O=S(=O)(O)Oc1ccc(/C=C/c2cc(O)cc3c2C(c2cc(O)cc(O)c2)C(c2ccc(O)cc2)O3)cc1 (stereo not shown) [MS2]	–	–	MS2: 23.5 ± 3.1%	almost equal amounts	MS2: 24.8 ± 1.2%	–	–	–	8.46 ± 0.89	Vmax [6]: 30.46 ± 0.96 pmol/min/mg protein
O=S(=O)(O)Oc1ccc(C2Oc3cc(O)cc(/C=C/c4ccc(O)cc4)c3C2c2cc(O)cc(O)c2)cc1 (stereo not shown) [MS3]	–	–	MS3: 22.0 ± 1.9%	almost equal amounts	MS3: 0%	trace amount	–	–	13.47 ± 1.10	–
Oc1ccc(/C=C/c2cc(O)cc3c2[C@@H](c2cc(O)cc(O)c2)[C@H](c2ccc(O)cc2)O3)cc1 [ε-viniferin, ε-Viniferin]	–	–	–	–	–	–	–	–	–	Sulfatation (%) [2]: 4.3% and 4.3 ± 0.3%; ε-viniferin conversion (%) [2]: 78.1 ± 0.9%; oral bioavailability [8]: 0.77%; Glucuronidation (%) [4]: 29.1% and 29.1 ± 1.2%; Sulfatation (%) [4]: 43.6% and 43.6 ± 1.8%
O=S(=O)(O)Oc1cc(O)cc(C2c3c(/C=C/c4ccc(O)cc4)cc(O)cc3OC2c2ccc(O)cc2)c1 (stereo not shown) [MS4]	–	–	MS4: 16.4 ± 1.3%	almost equal amounts	MS4: 0%	trace amount	–	–	36.79 ± 3.94	–

Further lines, with some results ahead:

percentage of each metabolite relative to the total amount of ε-viniferin metabolites formed by glucuronidation [2]	percentage of each metabolite relative to the total amount of ε-viniferin metabolites formed by glucuronidation [4]	percentage of each metabolite relative to the total amount of ε-viniferin metabolites formed by sulfation [2]	relative abundance among the sulfoconjugates (UPLC-DAD profile) [7]	percentage of each metabolite relative to the total amount of ε-viniferin metabolites formed by sulfation [4]	relative abundance among the sulfoconjugates (UPLC-DAD profile) [6]	Compound	Vmax [1] [pmol/min/mg protein]	Vmax [3] [pmol/min/mg protein]	Vmax [7] [pmol/min/mg protein]	other results
MG2: 1.1 ± 0.2%	MG2: 5.0 ± 1.2%	–	–	–	–	O=C(O)C1OC(Oc2ccc(/C=C/c3cc(O)cc4c3C(c3cc(O)cc(O)c3)C(c3ccc(O)cc3)O4)cc2)C(O)C(O)C1O (stereo not shown) [MG2]	12.49 ± 1.13	2.54 ± 0.16	–	–
MG1: 91.1 ± 2.4%	MG1: 54.6 ± 2.4%	–	–	–	–	O=C(O)C1OC(Oc2cc(/C=C/c3ccc(O)cc3)c3c(c2)OC(c2ccc(O)cc2)C3c2cc(O)cc(O)c2)C(O)C(O)C1O (stereo not shown) [MG1]	548.90 ± 86.17	11.27 ± 1.30	–	relative abundance among the glucuronides (UPLC-DAD profile) ([1]; rat liver S9 2 mg/mL, ε-viniferin 50 µM, UDPGA, 40 min, 37 °C): major metabolite; relative abundance among the glucuronides (UPLC-DAD profile) [3]: major metabolites
MG3: 0.7 ± 0.0%	MG3: 8.9 ± 0.5%	–	–	–	–	O=C(O)C1OC(Oc2ccc(C3Oc4cc(O)cc(/C=C/c5ccc(O)cc5)c4C3c3cc(O)cc(O)c3)cc2)C(O)C(O)C1O (stereo not shown) [MG3]	3.06 ± 0.14	0.78 ± 0.06	–	–
MG4: 7.1 ± 0.1%	MG4: 31.5 ± 0.9%	–	–	–	–	O=C(O)C1OC(Oc2cc(O)cc(C3c4c(/C=C/c5ccc(O)cc5)cc(O)cc4OC3c3ccc(O)cc3)c2)C(O)C(O)C1O (stereo not shown) [MG4]	43.99 ± 5.49	4.91 ± 0.78	–	relative abundance among the glucuronides (UPLC-DAD profile) [3]: major metabolites
–	–	MS1: 38.0 ± 1.4%	almost equal amounts	MS1: 75.2 ± 3.8%	major metabolite	O=S(=O)(O)Oc1cc(/C=C/c2ccc(O)cc2)c2c(c1)OC(c1ccc(O)cc1)C2c1cc(O)cc(O)c1 (stereo not shown) [MS1]	–	–	25.16 ± 2.29	Vmax [6]: 361.60 ± 13.09 pmol/min/mg protein
